Reference: the NIST ThermoML archive (doi:10.1021/je700193w)
Numbers after ± are expanded uncertainties.

How the values were obtained:
[1] = excess molar enthalpy (molar enthalpy of mixing); xn = mol fraction of the nth substance listed; conditions: 101 kPa, Liquid
[2] = xn = mol fraction of the nth substance listed; conditions: 101 kPa, Liquid

Compound C=C1CCC2CC1C2(C)C (stereo not drawn) [β-pinene] + CC(C)CO has an excess molar enthalpy ([1]; 283.15 K, x1 = 0.0529) of 0.0158 ± 0.00167 kcal/mol, an excess molar enthalpy ([1]; 283.15 K, x1 = 0.109) of 0.0306 ± 0.00191 kcal/mol and an excess molar enthalpy ([1]; 283.15 K, x1 = 0.2159) of 0.0605 ± 0.00263 kcal/mol. For the same compound, the excess molar enthalpy ([1]; 283.15 K, x1 = 0.3175) was 0.0851 ± 0.00335 kcal/mol, the excess molar enthalpy ([1]; 283.15 K, x1 = 0.4299) was 0.108 ± 0.00406 kcal/mol and the excess molar enthalpy ([1]; 283.15 K, x1 = 0.5331) was 0.124 ± 0.00454 kcal/mol. The excess molar enthalpy ([1]; 283.15 K, x1 = 0.6229) was 0.13 ± 0.00478 kcal/mol, the excess molar enthalpy ([1]; 283.15 K, x1 = 0.7198) was 0.127 ± 0.00478 kcal/mol and the excess molar enthalpy ([1]; 283.15 K, x1 = 0.8249) was 0.111 ± 0.0043 kcal/mol. The excess molar enthalpy ([1]; 283.15 K, x1 = 0.9096) was 0.0841 ± 0.00335 kcal/mol, the excess molar enthalpy ([1]; 283.15 K, x1 = 0.9686) was 0.0672 ± 0.00287 kcal/mol and the excess molar enthalpy ([1]; 298.15 K, x1 = 0.0529) was 0.0217 ± 0.00167 kcal/mol. For the same compound, the excess molar enthalpy ([1]; 298.15 K, x1 = 0.109) was 0.044 ± 0.00239 kcal/mol, the excess molar enthalpy ([1]; 298.15 K, x1 = 0.2159) was 0.0841 ± 0.00335 kcal/mol and the excess molar enthalpy ([1]; 298.15 K, x1 = 0.3175) was 0.115 ± 0.0043 kcal/mol. The excess molar enthalpy ([1]; 298.15 K, x1 = 0.4299) was 0.141 ± 0.00502 kcal/mol, the excess molar enthalpy ([1]; 298.15 K, x1 = 0.5331) was 0.156 ± 0.0055 kcal/mol and the excess molar enthalpy ([1]; 298.15 K, x1 = 0.6229) was 0.161 ± 0.00574 kcal/mol. It also gave an excess molar enthalpy ([1]; 298.15 K, x1 = 0.7198) of 0.152 ± 0.0055 kcal/mol, an excess molar enthalpy ([1]; 298.15 K, x1 = 0.8249) of 0.131 ± 0.00478 kcal/mol and an excess molar enthalpy ([1]; 298.15 K, x1 = 0.9096) of 0.101 ± 0.00382 kcal/mol. It also gave an excess molar enthalpy ([1]; 298.15 K, x1 = 0.9686) of 0.086 ± 0.00335 kcal/mol, an excess molar enthalpy ([1]; 303.15 K, x1 = 0.0529) of 0.0275 ± 0.00215 kcal/mol and an excess molar enthalpy ([1]; 303.15 K, x1 = 0.109) of 0.0566 ± 0.00263 kcal/mol. It also gave an excess molar enthalpy ([1]; 303.15 K, x1 = 0.2159) of 0.116 ± 0.00454 kcal/mol, an excess molar enthalpy ([1]; 303.15 K, x1 = 0.3175) of 0.154 ± 0.0055 kcal/mol and an excess molar enthalpy ([1]; 303.15 K, x1 = 0.4299) of 0.185 ± 0.00645 kcal/mol. The excess molar enthalpy ([1]; 303.15 K, x1 = 0.5331) was 0.2 ± 0.00693 kcal/mol, the excess molar enthalpy ([1]; 303.15 K, x1 = 0.6229) was 0.204 ± 0.00717 kcal/mol and the excess molar enthalpy ([1]; 303.15 K, x1 = 0.7198) was 0.191 ± 0.00669 kcal/mol. For the same compound, the excess molar enthalpy ([1]; 303.15 K, x1 = 0.8249) was 0.162 ± 0.00574 kcal/mol, the excess molar enthalpy ([1]; 303.15 K, x1 = 0.9096) was 0.124 ± 0.00454 kcal/mol and the excess molar enthalpy ([1]; 303.15 K, x1 = 0.9686) was 0.103 ± 0.00406 kcal/mol. For the same compound, the excess molar enthalpy ([1]; 313.15 K, x1 = 0.0529) was 0.0356 ± 0.00239 kcal/mol, the excess molar enthalpy ([1]; 313.15 K, x1 = 0.109) was 0.0743 ± 0.00335 kcal/mol and the excess molar enthalpy ([1]; 313.15 K, x1 = 0.2159) was 0.141 ± 0.00526 kcal/mol. For the same compound, the excess molar enthalpy ([1]; 313.15 K, x1 = 0.3175) was 0.187 ± 0.00645 kcal/mol, the excess molar enthalpy ([1]; 313.15 K, x1 = 0.4299) was 0.221 ± 0.00765 kcal/mol and the excess molar enthalpy ([1]; 313.15 K, x1 = 0.5331) was 0.239 ± 0.00813 kcal/mol. It also gave an excess molar enthalpy ([1]; 313.15 K, x1 = 0.6229) of 0.242 ± 0.00813 kcal/mol, an excess molar enthalpy ([1]; 313.15 K, x1 = 0.7198) of 0.225 ± 0.00765 kcal/mol and an excess molar enthalpy ([1]; 313.15 K, x1 = 0.8249) of 0.192 ± 0.00669 kcal/mol. The excess molar enthalpy ([1]; 313.15 K, x1 = 0.9096) was 0.147 ± 0.0055 kcal/mol, the excess molar enthalpy ([1]; 313.15 K, x1 = 0.9686) was 0.123 ± 0.00454 kcal/mol and the excess molar enthalpy ([1]; 323.15 K, x1 = 0.0529) was 0.044 ± 0.00263 kcal/mol. The excess molar enthalpy ([1]; 323.15 K, x1 = 0.109) was 0.0839 ± 0.00359 kcal/mol, the excess molar enthalpy ([1]; 323.15 K, x1 = 0.2159) was 0.163 ± 0.00598 kcal/mol and the excess molar enthalpy ([1]; 323.15 K, x1 = 0.3175) was 0.215 ± 0.00741 kcal/mol. For the same compound, the excess molar enthalpy ([1]; 323.15 K, x1 = 0.4299) was 0.248 ± 0.00837 kcal/mol, the excess molar enthalpy ([1]; 323.15 K, x1 = 0.5331) was 0.273 ± 0.00932 kcal/mol and the excess molar enthalpy ([1]; 323.15 K, x1 = 0.6229) was 0.274 ± 0.00932 kcal/mol. For the same compound, the excess molar enthalpy ([1]; 323.15 K, x1 = 0.7198) was 0.255 ± 0.0086 kcal/mol, the excess molar enthalpy ([1]; 323.15 K, x1 = 0.8249) was 0.22 ± 0.00765 kcal/mol and the excess molar enthalpy ([1]; 323.15 K, x1 = 0.9096) was 0.169 ± 0.00598 kcal/mol. The excess molar enthalpy ([1]; 323.15 K, x1 = 0.9686) was 0.141 ± 0.00526 kcal/mol, the mass density ([2]; 283.15 K, x1 = 0.0566) was 815.77 ± 0.7 kg/m3 and the speed of sound ([2]; 283.15 K, x1 = 0.0566) was 1248.3 ± 5.1 m/s. The mass density ([2]; 283.15 K, x1 = 0.1066) was 820.99 ± 0.69 kg/m3, the speed of sound ([2]; 283.15 K, x1 = 0.1066) was 1257.1 ± 5.1 m/s and the mass density ([2]; 283.15 K, x1 = 0.2011) was 829.88 ± 0.68 kg/m3. The speed of sound ([2]; 283.15 K, x1 = 0.2011) was 1270.2 ± 5.1 m/s, the mass density ([2]; 283.15 K, x1 = 0.2931) was 837.56 ± 0.67 kg/m3 and the speed of sound ([2]; 283.15 K, x1 = 0.2931) was 1281.1 ± 5.2 m/s. The mass density ([2]; 283.15 K, x1 = 0.395) was 845.26 ± 0.66 kg/m3, the speed of sound ([2]; 283.15 K, x1 = 0.395) was 1292.2 ± 5.2 m/s and the mass density ([2]; 283.15 K, x1 = 0.4928) was 851.82 ± 0.65 kg/m3. The speed of sound ([2]; 283.15 K, x1 = 0.4928) was 1302 ± 5.2 m/s, the mass density ([2]; 283.15 K, x1 = 0.6112) was 859.03 ± 0.63 kg/m3 and the speed of sound ([2]; 283.15 K, x1 = 0.6112) was 1313.9 ± 5.3 m/s. For the same compound, the mass density ([2]; 283.15 K, x1 = 0.6906) was 863.45 ± 0.63 kg/m3, the speed of sound ([2]; 283.15 K, x1 = 0.6906) was 1321.1 ± 5.3 m/s and the mass density ([2]; 283.15 K, x1 = 0.7939) was 868.88 ± 0.62 kg/m3. The speed of sound ([2]; 283.15 K, x1 = 0.7939) was 1330.7 ± 5.3 m/s, the mass density ([2]; 283.15 K, x1 = 0.8682) was 872.61 ± 0.61 kg/m3 and the speed of sound ([2]; 283.15 K, x1 = 0.8682) was 1337.7 ± 5.3 m/s. For the same compound, the mass density ([2]; 283.15 K, x1 = 0.9393) was 876.05 ± 0.61 kg/m3, the speed of sound ([2]; 283.15 K, x1 = 0.9393) was 1346.2 ± 5.3 m/s and the mass density ([2]; 298.15 K, x1 = 0.0481) was 803.39 ± 0.72 kg/m3. It also gave a speed of sound ([2]; 298.15 K, x1 = 0.0481) of 1195.7 ± 4.9 m/s, a mass density ([2]; 298.15 K, x1 = 0.1107) of 809.85 ± 0.71 kg/m3 and a speed of sound ([2]; 298.15 K, x1 = 0.1107) of 1203.9 ± 4.9 m/s. For the same compound, the mass density ([2]; 298.15 K, x1 = 0.201) was 818.16 ± 0.7 kg/m3.
